Measurements: ChEMBL document CHEMBL1201862, “PubChem BioAssay data set” (2004)
Several values for one entry are separate records, joined by “and”; a condition that tells them apart may be missing. Equal values may be shown once.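 In this assay, cells in 96-well plates receive the compound at five concentrations for 48 hours. Endpoints are linearly interpolated between the surrounding concentrations. Here, GI50 denotes the concentration required for 50% inhibition of growth.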 Activity calls are given as the source filed them. Cut-off read from the data, not from the text of the source: active = GI50 up to about 1.1 µM and inactive = higher.

Columns and labels:
Test in all cases: NCI-60 cell line screen, 48 h
[1] = system: NCI-H226
[2] = system: LOX IMVI
[3] = system: HCT-116
[4] = system: A549
[5] = system: SNB-78
[6] = system: TK-10
[7] = system: U-251
[8] = system: Malme-3M
[9] = system: UO-31
[10] = system: HCC 2998
[11] = system: CAKI-1
[12] = system: SF-295
[13] = system: KM12
[14] = system: SR
[15] = system: LXFL 529
[16] = system: UACC-62
[17] = system: NCI-H522
[18] = system: SK-MEL-28
[19] = system: OVCAR-3
[20] = system: SNB-75
[21] = system: SN12C
[22] = system: HL-60
[23] = system: OVCAR-5
[24] = system: OVCAR-8
[25] = system: ACHN
[26] = system: NCI-H460
[27] = system: RXF 631
[28] = system: 786-0
[29] = system: SF-539
[30] = system: K562
[31] = system: RPMI-8226
[32] = system: HT-29
[33] = system: IGROV-1
[34] = system: M19-MEL
[35] = system: OVCAR-4
[36] = system: UACC-257
[37] = system: SW-620
[38] = system: M14
[39] = system: A498
[40] = system: SF-268
[41] = system: KM-20L2
[42] = system: SNB-19
[43] = system: SK-OV-3
[44] = system: NCI-H23
[45] = system: EKVX
[46] = system: SK-MEL-2
[47] = system: MOLT-4
[48] = system: CCRF-CEM
[49] = system: HOP-62
[50] = system: HCT-15
[51] = system: DLD-1
[52] = system: DMS-114
[53] = system: SK-MEL-5
[54] = system: RXF 393
[55] = system: DMS-273

Compound: CC1OC(n2ncc(=O)[nH]c2=O)C=CC1=O (stereo not given)
- GI50 [1]: > 100 µM (inactive)
- GI50 [2]: > 100 µM (inactive)
- GI50 [3]: 30.4 µM (inactive) and 55.8 µM (inactive)
- GI50 [4]: > 100 µM (inactive)
- GI50 [5]: 21.5 µM (inactive) and 26.9 µM (inactive)
- GI50 [6]: > 100 µM (inactive) and 71.4 µM (inactive)
- GI50 [7]: 50.7 µM (inactive) and 41.2 µM (inactive)
- GI50 [8]: 22.1 µM (inactive) and 18.8 µM (inactive)
- GI50 [9]: > 100 µM (inactive)
- GI50 [10]: > 100 µM (inactive)
- GI50 [11]: > 100 µM (inactive)
- GI50 [12]: 52.6 µM (inactive)
- GI50 [13]: 46.1 µM (inactive) and 63 µM (inactive)
- GI50 [14]: 26.7 µM (inactive) and 33.5 µM (inactive)
- GI50 [15]: > 100 µM (inactive) and 59 µM (inactive)
- GI50 [16]: 31.8 µM (inactive) and 60.4 µM (inactive)
- GI50 [17]: 20 µM (inactive) and 18.8 µM (inactive)
- GI50 [18]: 31.9 µM (inactive) and 21.8 µM (inactive)
- GI50 [19]: 95.3 µM (inactive)
- GI50 [20]: 44.5 µM (inactive) and 55.5 µM (inactive)
- GI50 [21]: 70.3 µM (inactive) and 35.8 µM (inactive)
- GI50 [22]: 26.2 µM (inactive) and 23.7 µM (inactive)
- GI50 [23]: > 100 µM (inactive)
- GI50 [24]: 37.3 µM (inactive) and 41.1 µM (inactive)
- GI50 [25]: 27.9 µM (inactive) and 37.9 µM (inactive)
- GI50 [26]: > 100 µM (inactive) and 63.1 µM (inactive)
- GI50 [27]: 13.1 µM (inactive) and 16.4 µM (inactive)
- GI50 [28]: 36.3 µM (inactive) and 55.2 µM (inactive)
- GI50 [29]: 40.2 µM (inactive) and 24.2 µM (inactive)
- GI50 [30]: 33.1 µM (inactive) and 44 µM (inactive)
- GI50 [31]: 33 µM (inactive) and 24.3 µM (inactive)
- GI50 [32]: 41.8 µM (inactive) and 52.6 µM (inactive)
- GI50 [33]: > 100 µM (inactive)
- GI50 [34]: 50.8 µM (inactive) and 71.3 µM (inactive)
- GI50 [35]: > 100 µM (inactive)

Compound: Clc1ccc2c(c1)[nH]c1c2nc2ccccn21
- GI50 [1]: 22.4 µM (inactive)
- GI50 [36]: 29.2 µM (inactive)
- GI50 [37]: 18.5 µM (inactive)
- GI50 [3]: 21.2 µM (inactive)
- GI50 [4]: 50.1 µM (inactive)
- GI50 [5]: 24 µM (inactive)
- GI50 [6]: > 10 µM (inactive)
- GI50 [38]: 24.7 µM (inactive)
- GI50 [9]: 19.5 µM (inactive)
- GI50 [39]: 27.1 µM (inactive)
- GI50 [13]: 19.3 µM (inactive)
- GI50 [14]: 25.1 µM (inactive)
- GI50 [17]: 19.5 µM (inactive)
- GI50 [18]: 21.3 µM (inactive)
- GI50 [40]: 28.6 µM (inactive)
- GI50 [27]: 43 µM (inactive)
- GI50 [28]: 22.1 µM (inactive)
- GI50 [29]: 22.6 µM (inactive)
- GI50 [31]: 23.7 µM (inactive)
- GI50 [32]: 21.9 µM (inactive)
- GI50 [41]: 27.9 µM (inactive)
- GI50 [42]: 22.4 µM (inactive)
- GI50 [33]: 30.8 µM (inactive)
- GI50 [43]: 30.3 µM (inactive)
- GI50 [44]: 24.7 µM (inactive)

Compound: CC(CCCOC(c1ccccc1)(c1ccccc1)c1ccccc1)OC(=O)Nc1cc([N+](=O)[O-])cc([N+](=O)[O-])c1 (stereo not given)
- GI50 [45]: 32 µM (inactive)
- GI50 [2]: 29.9 µM (inactive)
- GI50 [36]: 24.3 µM (inactive)
- GI50 [37]: 33.5 µM (inactive)
- GI50 [3]: 33.9 µM (inactive)
- GI50 [46]: 29.4 µM (inactive)
- GI50 [47]: 28.8 µM (inactive)
- GI50 [4]: 31.6 µM (inactive)
- GI50 [48]: 32.4 µM (inactive)
- GI50 [7]: 36.9 µM (inactive)
- GI50 [8]: 27.6 µM (inactive)
- GI50 [49]: 27.4 µM (inactive)
- GI50 [38]: 34.9 µM (inactive)
- GI50 [50]: 32.4 µM
- GI50 [9]: 49 µM (inactive)
- GI50 [51]: 30.1 µM (inactive)
- GI50 [10]: 35.6 µM (inactive)
- GI50 [11]: 18.5 µM (inactive)
- GI50 [12]: 27 µM (inactive)
- GI50 [39]: 22.8 µM (inactive)
- GI50 [13]: 32.1 µM (inactive)
- GI50 [14]: 38.5 µM (inactive)
- GI50 [52]: 30.6 µM (inactive)
- GI50 [15]: 29.2 µM (inactive)
- GI50 [16]: 16.9 µM (inactive)
- GI50 [17]: 23.7 µM (inactive)
- GI50 [18]: 28.2 µM (inactive)
- GI50 [53]: 22.8 µM (inactive)
- GI50 [19]: 33.3 µM (inactive)
- GI50 [40]: 35.5 µM (inactive)
- GI50 [20]: 21.3 µM (inactive)
- GI50 [54]: 43.3 µM (inactive)
- GI50 [21]: 41.5 µM (inactive)
- GI50 [55]: 33.7 µM (inactive)
- GI50 [22]: 31.6 µM (inactive)
- GI50 [24]: 33.5 µM (inactive)
- GI50 [25]: 27.7 µM (inactive)
- GI50 [26]: 24.5 µM (inactive)
- GI50 [27]: 38.2 µM (inactive)
- GI50 [28]: 28.2 µM (inactive)
- GI50 [29]: 38 µM (inactive)
- GI50 [30]: 32.1 µM (inactive)
- GI50 [31]: 32.5 µM (inactive)
- GI50 [32]: 28.2 µM (inactive)
- GI50 [42]: 57.5 µM (inactive)
- GI50 [33]: 30.9 µM (inactive)
- GI50 [43]: 14.8 µM (inactive)
- GI50 [34]: 40.3 µM (inactive)
- GI50 [44]: 29 µM (inactive)
- GI50 [35]: 37.5 µM (inactive)
